One experiment deals with cortical neurons. Nature of the experiment: glutamate-induced neuronal death in cultured cortical neurons. Format: cell-based, rats. To be noted: 300 μM glutamate for 24 hours. How it is done:
Primary cultured cells were used as a model to evaluate the subject small molecule effect on CNS. Glutamate neurotoxicity can be most directly studied using neurons prepared from the brain at the late embryonic stage and subsequently cultured for maturation. To examine the effect of the subject small molecules (E5A24 and E5A29) on glutamate-induced neuronal death, cortical neurons isolated from embryonic day 18 rats, were cultured for 10 days. Subsequently, neurons were treated for 24 hours with or without the subject small molecules, and further exposed to 300 μM glutamate for 24 hours. After glutamate was washed out, the cells were cultured for another 24 hours. During the glutamate challenge and subsequent culture, the subject small molecules were absent. Finally, the cell viability was examined. […] Experiments were performed according to the literature (Morishita et. al., Neuroscience 76, 105, 1997).

The subject of the next experiment is TF-1 and UT-7 cells. Briefly: biological testing in cell lines (cell proliferation and cell signaling). Conditions: biological testing in cell line. The class given is cell-based. The text has this: Compounds identified in the initial screen were further tested for their biological activity in two assays: a cell proliferation assay and a cell signaling assay in TF-1 and UT-7 cells. The hit rate in cell proliferation was 0.16%; hit rate in cell signaling was 0.25%.
Compounds identified in the initial screen were further tested for their biological activity in two assays: a cell proliferation assay and a cell signaling assay in TF-1 cells. The hit rate in cell proliferation was 0.16%; hit rate in cell signaling was 0.25%.

The test system of another experiment is mouse bone marrow cells. Briefly: formation of erythroid colonies from mouse bone marrow in methylcellulose. Format: cell-based. The method, then: (§1) Mouse or human bone marrow cells were stimulated in methylcellulose for 7 days (mouse) or 14 days (human) with non-peptide EPO-R modulators. Formation of erythroid colonies was observed. (See FIGS. 6 to 8)
Bone marrow cells were isolated from mouse femurs. Cells were washed twice with PBS and resuspended to a density of 6.5×10^6 cells/ml in media. 300 μl (6.5×10^5/ml) of cells were mixed with 1.5 ml of methylcellulose media (Stemcell Technology) to which the desired concentration of compound or the EPO was added. The mixture was poured onto 35 mm dishes; all the conditions are performed in duplicates. The incubation was for […] at 37° C., 5% CO2. The colonies were scored on day seven.
After thawing methylcellulose overnight, the next morning, 20 ml of Iscove's MDM+2%FBS is added to the bottle to achieve 100 ml total. The bottle is mixed for at least 30 seconds and settled for about 10 minutes. 10 cc syringes are used to aliquot 3 ml per minisorp tube.

The subject of another experiment is human bone marrow cells. Briefly: formation of erythroid colonies from human bone marrow in methylcellulose. Format: cell-based. How it is done: as §1
(1) Dilute human bone marrow 1:1 with sterile PBS. (2) Slowly layer bone marrow into 50 ml tubes containing 20 ml of LSM Lymphocyte separation medium (ICN/Cappel—cat #50494). 50 ml bone marrow will yield 2 tubes. (3) Spin tubes at 2000 rpm for 30 minutes with brake off. (4) Slowly take out the middle layer using a 10 ml pipette and transfer into a new 50 ml tube. (5) Add PBS+0.5% BSA+5 mM EDTA to tube for washing. (6) Spin tube for 5 minutes at speed 4 with brake on. (7) Repeat wash step 2 more times. (8) After 3rd wash, resuspend pellet in SF Iscoves' MDM medium. (9) Count by diluting cells in 3% acetic acid. (10) Dilute cells to desired concentration (5×10^5 cells/ml) and seed onto methylcellulose.
(1) Tubes containing 3.0 ml of methylcellulose medium (Stemcell Technology, cat # H4230) supplemented with 50 ng/ml hSCF are prepared. (Alternatively the methylcellulose could be supplemented with 50 ng/ml hSCF, 20 ng/ml of hIL-3 and hIL-6). (2) Compounds or EPO of desired concentrations are added to the tubes. “Control” tubes or tubes that will receive EPO are supplemented with DMSO to a final concentration of 0.16%. […] Colonies are scored on day twelve.

Another experiment has as its system Bcl-xl protein. Nature of the experiment: up-regulation of Bcl-xl expression (immunoprecipitation, western blot). Format: cell-based. How it is done: When the subject compounds were tested for anti-apoptotic effect was evaluated, these antibodies were used: Anti-Bcl-X1/s antibody (Santa Cruz Biotechnology, SC-1041), Anti-Bcl-X1 antibody (Santa Cruz Biotechnology, SC8392)
A number of molecules of the subject invention were evaluated in in vitro systems that reflect the condition of cerebral ischemia and metabolic stress. Firstly, it is known that one of the mechanisms by which EPO prevents neuronal apoptosis is by up-regulating the expression levels of Bcl-x1 protein, which is a well-described anti-apoptotic protein. Thus, cells-lines that are known to be EPO responsive (UT-7 and TF-1, used in previous studies) were used as a cellular system to examine the small molecules' anti-apoptotic activity through EPO-R.
The evaluation was performed by starving the cells, stimulating the cells with compounds at appropriate concentrations (or no stimulation for control samples) and immunoprecipitating the cell lysates with antibody specific to both forms (short and long) of Bcl-x1 protein. The amount of Bcl-x1 (long protein form, known to have anti-apoptotic activity) protein was evaluated by western blot analysis.
On the technique in general: In western blotting, separated proteins are transferred to a membrane and probed.

The test system of a further experiment is P-19 cells. Briefly: cell survival of P-19 cells after withdrawal of serum. Format: cell-based. To be noted: P19 cells; treated 24 hours before, serum withdrawn for 48 hours. How it is done: Experiments were performed according to the described protocol. The anti-apoptotic effect of the subject small molecules was evaluated in P-19 cells (a neural-like embryonal carcinoma cell line) that undergo apoptosis upon withdrawal of serum. Briefly, cells were treated with small molecules for 24 hours prior to serum withdrawal. Serum was withdrawn for 48 hours in the presence or absence of a subject small molecule (EM5 and E5A24). At the end of that period, cell survival was evaluated. […] This Figure is representative of the experiment and of the subject small molecules. The experiments were performed according to literature procedures (Siren et.al., Proc. Nat. Acad. Sci. 98, 4044, 2001). Cell survival was determined according to the protocol described for cellular proliferation.

For a further experiment, the system named is TF-1 cells. Nature of the experiment: cell proliferation. The class given is cell-based. Conditions: 96 hours. How it is done:
TF-1 cells were stimulated for 96 hours with different non-peptide EPO-R modulators, and it was observed that the non-peptide EPO binding molecules stimulated cellular proliferation in dose-responsive manner and to the extent of the natural hormone.

Experiment [1] concerns EPO-Receptor down stream signaling pathway. Briefly: in vitro signaling (phosphorylation of EPO-R, JAK2, STAT1, STAT3, STAT5). Format: cell-based. Conditions: UT-7 cells. The method, then:
UT-7 cells were grown in Minimal Essential Medium Alpha (MEM-α) containing 20% FBS, 1.5 g/L NaHCO3, 5 ng/ml GM-CSF, and 100U Penicillin/100 μg/ml Streptomycin Sulfate (“P/S”), in T150 flasks (60 ml/flask) at 37° C., 5% CO2 to a density of no more than 5×10^5 cells/ml. The cells were starved overnight in MEM-α containing 10% FBS, 1.5 g/L NaHCO3 and P/S in T150 flasks (60 ml/flask) at a density of 5×10^5 cells/ml, in 5% CO2, 37° C. The cells were then centrifuged in a swinging-bucket rotor at 200×g for 5 minutes at room temperature. The supernatant was removed, and the cells pooled into one 50 ml conical tube. The cells were washed twice with serum-free medium (MEM-α containing 1.5 g/L NaHCO3 and P/S). After the last wash, the cells were resuspended to a density of 1×10^7 cells/ml in serum-free medium. The cells were then placed in 15 ml conical tubes in 1 ml aliquots and incubated with the caps loosened for 1 hour at 37° C., 5% CO2. Every 10 minutes, the lower portion of each tube was tapped (flicked) several times to prevent the cells from settling (please note, this step is very important!)
It was also observed that EPO-R was phosphorylated when stimulated with non-peptide EPO-R modulators. (See FIG. 4) […]

“Also recorded” adds a separate entry of the source.

Regarding `Cc1n[nH]c2c1C(c1ccco1)C1=C(CC(C)(C)CC1=O)N2` (centres unmarked) [Cmpnd E5A29], the “cell survival of cortical neurons after glutamate challenge” value in the experiment on cortical neurons is reported as “prevented glutamate induced neuronal death in a dose-responsive manner; also recorded: increased cell survival”. Moreover, the “increase of cell survival” value in the experiment with cortical neurons (cortical neurons) is listed as 60%.
In the case of `Cn1ncc(S(=O)Oc2ccccc2)c(Cl)c1=O` (centres unmarked) [Cmpnd E6], the “maximum activity compared to EPO natural hormone” value with TF-1 and UT-7 cells was “maximum activity comparable to that of the maximum activity of EPO”. The “erythroid colony formation (CFU-e)” value in the experiment on mouse bone marrow cells and in the experiment with human bone marrow cells was “stimulate CFU-e formation to the same extent as EPO” in each case.
Turning to `Cc1cc(NCC2CC2)n2nc(Nc3cc(Cl)ccc3C)nc2n1` [EM5], the Bcl-xl expression entry in the experiment with Bcl-xl protein (TF-1 cells) and in the experiment with Bcl-xl protein (UT-7 cells) was “up-regulation of Bcl-xl expression” each time. In the experiment on Bcl-xl protein (both cell lines (UT-7 and TF-1)), the Bcl-x1 protein up-regulation entry is on record as “induced up-regulation of Bcl-x1 protein in a dose-responsive manner”. The “cell viability / protection from apoptosis after withdrawal of serum” value with P-19 cells is “protect cells from apoptosis; also recorded: increased cell viability”.
Take `Cc1ccc(Cl)cc1Nc1nc2nc(C)c(NCC3CC3)cn2n1` [Cmpnd E5]: in the experiment with TF-1 and UT-7 cells, the “maximum activity compared to EPO natural hormone” value is listed as “maximum activity comparable to that of the maximum activity of EPO”. For the same molecule, the cellular proliferation result with TF-1 cells is given as “proliferative effect”. The “activation of EPO-R” value in experiment [1] is recorded as “activation of EPO-R”. In addition, the “erythroid colony formation (CFU-e)” value in the experiment with mouse bone marrow cells and with human bone marrow cells was “stimulate CFU-e formation to the same extent as EPO” in each case.

The values are drawn from patent publication US7037902B2, “Affinity small molecules for the EPO receptor” (Receptron, Inc., priority 2002, dated 2006).
